Read-outs that look alike come from different tables or passages of the source.
Key:
[1] = test system: ICR male mice; assay: Analgesic activity (acetic acid writhing method); assay type: in vivo; conditions: Mus musculus, sc; 3 mg/kg subcutaneous, 0.6% acetic acid i.p., writhing inhibition rate vs solvent group; hydrochloride was used; read-out: Inhibitory activities against writhing
Method: ICR male mice were used as groups each consisting of eight mice. Twenty minutes after the subcutaneous administration of a test compound (3 mg/kg), a 0.6% aqueous solution of acetic acid was intraperitoneally administered (0.1 mL/10 g body weight), and from the point 5 minutes after the administration, number of writhing observed over 20 minutes was counted. The analgesic activity was evaluated on the basis of the writhing inhibition rate (% inhibition) of the test compound administration group with respect to the writhing number of the solvent administration group.
1): Hydrochloride was used. 2): The evaluation results of the inhibitory activities against writhing were classified on the basis of the inhibition rate as follows. ≧90%, +++; 70≦%<90, ++; 50≦%<70, +

[2] = target: T1, opioid δ receptor (Homo sapiens, UniProt P41143); assay: Opioid receptor functional test (Lance Ultra cAMP Kit), δ receptor agonist activity; assay type: cell-based; conditions: for Emax: read-out: δ Receptor Emax
T1 construct: expressed in transfected cells; host or cells: CHO cells
T1 sequence (P41143 whole entry): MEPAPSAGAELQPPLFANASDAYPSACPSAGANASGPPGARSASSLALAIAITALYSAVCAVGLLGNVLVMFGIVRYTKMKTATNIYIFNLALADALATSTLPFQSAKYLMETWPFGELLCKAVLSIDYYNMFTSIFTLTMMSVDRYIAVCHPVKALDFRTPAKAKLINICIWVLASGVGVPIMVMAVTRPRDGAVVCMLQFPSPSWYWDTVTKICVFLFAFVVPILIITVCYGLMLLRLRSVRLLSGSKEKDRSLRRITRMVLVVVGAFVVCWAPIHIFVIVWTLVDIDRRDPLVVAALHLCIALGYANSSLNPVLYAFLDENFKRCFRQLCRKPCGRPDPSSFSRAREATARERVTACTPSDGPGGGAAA
Method: (§1) Functional activities of the compounds of the present invention for the μ, […], and κ opioid receptors were investigated.
(§2) The test was performed according to a prescribed method by using Lance Ultra cAMP Kit (Perkin-Elmer). The agonist activities were evaluated as follows. The CHO cells expressing each opioid receptor (μ, δ, or κ) and a test compound were reacted in an assay buffer (1×HBSS, […], pH 7.4, […] IBMX (isobutylmethylxanthine), 7.5% BSA) for 30 minutes in the presence of 10 μM forskolin. Then, the cAMP detection reagent included in the kit was added, and after 1 hour, time-resolved fluorescence measurements were performed by using the EnVision plate reader (Perkin-Elmer). A dose-responce curve of the test compound was obtained from fluorescence values measured at 665 nm, and EC50 value and Emax value were calculated. The Emax value was calculated as a ratio of the maximum responce of the test compound with respect to the maximum responce of each control agent (SNC80 for δ, DAMGO for μ, U-69593 for κ) taken as 100%.
(§3) 1): Hydrochloride was used.

[3] = target: T2, opioid μ receptor (Homo sapiens, UniProt P35372); assay: Opioid receptor functional test (Lance Ultra cAMP Kit), μ receptor agonist activity; assay type: cell-based; conditions: hydrochloride was used; for EC50: CHO cells expressing μ opioid receptor, 10 μM forskolin, cAMP; for Emax: maximum response relative to DAMGO taken as 100%, read-out: μ Receptor Emax; for Emax at 10 µM: maximum concentration (10 μM), reaction did not reach the maximum, EC50 N.C., relative to DAMGO, read-out: μ Receptor responce rate at the maximum concentration (reference value)
T2 construct: expressed in transfected cells; host or cells: CHO cells
T2 sequence (P35372 whole entry): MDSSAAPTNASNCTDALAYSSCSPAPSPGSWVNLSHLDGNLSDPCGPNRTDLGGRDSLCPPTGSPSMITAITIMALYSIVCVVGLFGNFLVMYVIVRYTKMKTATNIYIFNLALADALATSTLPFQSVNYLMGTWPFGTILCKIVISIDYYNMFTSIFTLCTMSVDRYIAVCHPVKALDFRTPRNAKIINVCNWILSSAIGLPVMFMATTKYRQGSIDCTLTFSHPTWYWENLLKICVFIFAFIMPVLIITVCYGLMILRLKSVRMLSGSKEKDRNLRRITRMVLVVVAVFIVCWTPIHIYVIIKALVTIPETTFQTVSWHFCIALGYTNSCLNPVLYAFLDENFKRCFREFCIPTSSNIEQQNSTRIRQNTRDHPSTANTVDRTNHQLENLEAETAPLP
Method: as §1, §2, §3

[4] = target: T3, opioid κ receptor (Homo sapiens, UniProt P41145); assay: Opioid receptor functional test (Lance Ultra cAMP Kit), κ receptor agonist activity; assay type: cell-based; conditions: hydrochloride was used; for EC50: CHO cells expressing κ opioid receptor, 10 μM forskolin, cAMP, read-out: κ Receptor EC50 value; for Emax: maximum response relative to U-69593 taken as 100%, read-out: κ Receptor Emax; for Emax at 10 µM: maximum concentration (10 μM), reaction did not reach the maximum, EC50 N.C., relative to U-69593, read-out: κ Receptor responce rate at the maximum concentration (reference value)
T3 construct: expressed in transfected cells; host or cells: CHO cells
T3 sequence (P41145 whole entry): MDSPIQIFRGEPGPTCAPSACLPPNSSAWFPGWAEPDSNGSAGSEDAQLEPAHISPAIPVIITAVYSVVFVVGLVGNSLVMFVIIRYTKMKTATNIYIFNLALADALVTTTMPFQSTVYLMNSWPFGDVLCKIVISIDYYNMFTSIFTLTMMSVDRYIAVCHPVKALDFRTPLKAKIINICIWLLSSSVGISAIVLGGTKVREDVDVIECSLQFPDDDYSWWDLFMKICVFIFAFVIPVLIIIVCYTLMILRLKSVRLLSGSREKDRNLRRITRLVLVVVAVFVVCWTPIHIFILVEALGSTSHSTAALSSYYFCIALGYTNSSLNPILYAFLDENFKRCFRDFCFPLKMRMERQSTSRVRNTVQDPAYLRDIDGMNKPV
Method: as §1, §2, §3

[5] = CHO cells expressing δ opioid receptor, 10 μM forskolin, cAMP, hydrochloride was used, read-out: δ Receptor EC50 value
[6] = maximum response relative to SNC80 taken as 100%, hydrochloride was used

Row | SMILES | inhibition in vivo at 3 mg/kg [1] [%] | EC50 [2, 5] [nM] | Emax [2, 6] [%] | EC50 [4] [nM] | Emax [4] [%] | Emax at 10 µM [3] [%] | further results
1 | Oc1ccc2c(c1)C13CCN(CC4CC4)C(C2)C12CCC1C3[C@@H](CN1c1cc(F)ccn1)C2 (stereo partly drawn) [Compound 239] | ≥ 90 | – | – | – | – | – | –
2 | O=C(c1ccccc1)N1C[C@H]2C[C@@]34CCC1C2[C@@]31CCN(CC2CC2)[C@@H]4Cc2ccccc21 (stereo partly drawn) [Compound 298, [(1S,5aS,6R,11bR)-14-(Cyclopropylmethyl)-4,5,6,7-tetrahydro-1H-6,11b-(iminoethano)-1,5a-methanonaphtho[1,2-e]indol-3(2H,3aH,11cH)-yl](phenyl)methanone] | ≥ 90 | < 10 | 102 | > 100 | 32 | – | EC50 [3]: > 50 nM; Emax [3]: 16%
3 | O=C(c1ccccc1)N1C[C@H]2C[C@@]34CC[C@@H]1[C@@H]2[C@@]31CCN(CC2CC2)[C@@H]4Cc2ccc(O)cc21 [Compound 78, [(1S,3aR,5aS,6R,11bR,11cS)-14-(cyclopropylmethyl)-10-hydroxy-1,2,3a,4,5,6,7,11c-octahydro-3H-6,11b-(iminoethano)-1,5a-methanonaphtho[1,2-e]indol-3-yl](phenyl)methanone] | 50 to 70 | – | – | – | – | 4.7 | EC50 [2]: < 1 nM; Emax [2]: 83%; Emax at 10 µM [4]: 5.5%
4 | Cc1cc(C)nc(N2C[C@H]3C[C@@]45CCC2C3[C@@]42CCN(CC3CC3)[C@@H]5Cc3ccc(O)cc32)n1 (stereo partly drawn) [Compound 223, (1S,5aS,6R,11bR)-14-(cyclopropylmethyl)-3-(4,6-dimethylpyrimidin-2-yl)-2,3,3a,4,5,6,7,11c-octahydro-1H-6,11b-(iminoethano)-1,5a-methanonaphtho[1,2-e]indol-10-ol] | ≥ 90 | – | – | – | – | – | –
5 | Oc1ccc2c(c1)C13CCN(CC4CC4)C(C2)C12CCC1C3[C@@H](CN1c1ccc3ccccc3n1)C2 (stereo partly drawn) [Compound 243] | 70 to 90 | – | – | – | – | – | –
6 | O=C(c1cccc(Cl)c1)N1C[C@H]2C[C@@]34CC[C@@H]1[C@@H]2[C@@]31CCN(CC2CC2)[C@@H]4Cc2ccc(O)cc21 [Compound 79, (3-chlorophenyl)[(1S,3aR,5aS,6R,11bR,11cS)-14-(cyclopropylmethyl)-10-hydroxy-1,2,3a,4,5,6,7,11c-octahydro-3H-6,11b-(iminoethano)-1,5a-methanonaphtho[1,2-e]indol-3-yl]methanone] | 70 to 90 | < 1 | 75 | – | – | 8.8 | Emax at 10 µM [4]: 9.6%
7 | CC(C)NC(=O)N1C[C@H]2CC34CCC1C2C31CCN(CC2CC2)C4Cc2ccc(O)cc21 (stereo partly drawn) [Compound 159] | 70 to 90 | < 1 | 76 | < 1 | 37 | 2.8 | –
8 | Oc1ccc2c(c1)C13CCN(CC4CC4)C(C2)C12CCC1C3[C@@H](CN1c1cnccn1)C2 (stereo partly drawn) [Compound 257] | 70 to 90 | – | – | – | – | – | –
9 | Cc1cc(C)nc(N2C[C@H]3C[C@@]45CCC2C3[C@@]42CCN(CC3CC3)[C@@H]5Cc3cccc(O)c32)n1 (stereo partly drawn) [Compound 293, (1S,5aS,6R,11bS)-14-(cyclopropylmethyl)-3-(4,6-dimethylpyrimidin-2-yl)-2,3,3a,4,5,6,7,11c-octahydro-1H-6,11b-(iminoethano)-1,5a-methanonaphtho[1,2-e]indol-11-ol] | – | < 10 | 91 | > 50 | 51 | – | EC50 [3]: > 50 nM; Emax [3]: 17%

From patent US8952030B2, “Morphinan derivative” (priority 2011, dated 2015)
